Assay results published in US20220324800A1 (priority 2021, published 2022).

biological target: 3CLpro (Severe acute respiratory syndrome coronavirus 2, UniProt P0DTD1); assay: biochemical; set-up: species or system SARS-CoV-2

SMILES	IC50
CC(C)C[C@H](NC(=O)c1cccs1)C(=O)CN(C[C@@H]1CCNC1=O)C(=O)CCl [Example 13, N—((S)-1-(2-Chloro-N—(((S)-2-oxopyrrolidin-3-yl)methyl)acetamido)-5-methyl-2-oxohexan-3-yl)thiophene-2-carboxamide]	< 2000 nM
COc1cccc2[nH]c(C(=O)N[C@@H](CC(C)C)C(=O)CN(C[C@@H]3CCNC3=O)S(=O)(=O)CCl)cc12 [Example 10, N—((S)-1-((1-Chloro-N—(((S)-2-oxopyrrolidin-3-yl)methyl)methyl)sulfonamido)-5-methyl-2-oxohexan-3-yl)-4-methoxy-1H-indole-2-carboxamide]	> 20000 nM
CC(=O)OCC(=O)N(CC(=O)[C@H](CC(C)C)NC(=O)OC(C)(C)C)C[C@@H]1CCNC1=O [Example 17, 2-(((S)-3-((Tert-butoxycarbonyl)amino)-5-methyl-2-oxohexyl)(((S)-2-oxopyrrolidin-3-yl)methyl)amino)-2-oxoethyl acetate]	> 20000 nM
CC(C)C[C@H](NC(=O)c1cc2ccccc2o1)C(=O)CN(C[C@@H]1CCNC1=O)C(=O)CCl [Example 14, N—((S)-1-(2-Chloro-N—(((S)-2-oxopyrrolidin-3-yl)methyl)acetamido)-5-methyl-2-oxohexan-3-yl)benzofuran-2-carboxamide]	< 2000 nM
CC(C)C[C@H](NC(=O)OC(C)(C)C)C(=O)CN(C[C@@H]1CCNC1=O)C(=O)CCl [Example 1, Tert-butyl ((S)-1-(2-chloro-N—(((S)-2-oxopyrrolidin-3-yl)methyl)acetamido)-5-methyl-2-oxohexan-3-yl)carbamate]	< 2000 nM
CC(C)C[C@H](NC(=O)c1cc2c(F)cccc2s1)C(=O)CN(C[C@@H]1CCNC1=O)C(=O)CCl [Example 12, N—((S)-1-(2-Chloro-N—(((S)-2-oxopyrrolidin-3-yl)methyl)acetamido)-5-methyl-2-oxohexan-3-yl)-4-fluorobenzo[b]thiophene-2-carboxamide]	< 2000 nM
CC(C)C[C@H](NC(=O)c1cc(Cl)c(Cl)s1)C(=O)CN(C[C@@H]1CCNC1=O)C(=O)CCl [Example 11, 4,5-Dichloro-N—((S)-1-(2-chloro-N—(((S)-2-oxopyrrolidin-3-yl)methyl)acetamido)-5-methyl-2-oxohexan-3-yl)thiophene-2-carboxamide]	< 2000 nM
COc1cccc2[nH]c(C(=O)N[C@@H](CC(C)C)C(=O)CN(C[C@@H]3CCNC3=O)C(=O)SCc3ccccc3)cc12 [Example 18, S-Benzyl ((S)-3-(4-methoxy-1H-indole-2-carboxamido)-5-methyl-2-oxohexyl)(((S)-2-oxopyrrolidin-3-yl)methyl)carbamothioate]	> 20000 nM
CC(C)C[C@@H](NC(=O)OCc1ccccc1)C(=O)CN(C[C@@H]1CCNC1=O)C(=O)CCl [Example 21, Benzyl ((R)-1-(2-chloro-N—(((S)-2-oxopyrrolidin-3-yl)methyl)acetamido)-5-methyl-2-oxohexan-3-yl)carbamate]	2000 to 20000 nM
COc1cccc2[nH]c(C(=O)N[C@@H](CC(C)C)C(=O)CN(C[C@@H]3CCNC3=O)C(=O)CCl)cc12 [Example 2, N—((S)-1-(2-Chloro-N—(((S)-2-oxopyrrolidin-3-yl)methyl)acetamido)-5-methyl-2-oxohexan-3-yl)-4-methoxy-1H-indole-2-carboxamide]	< 2000 nM
CC(C)C[C@H](NC(=O)OC(C)(C)C)C(=O)CN(C[C@@H]1CCNC1=O)C(=O)SCc1ccccc1 [Example 16, Tert-butyl ((S)-1-(((benzylthio)carbonyl)(((S)-2-oxopyrrolidin-3-yl)methyl)amino)-5-methyl-2-oxohexan-3-yl)carbamate]	> 20000 nM
CC(C)C[C@H](NC(=O)c1cc2c(F)cccc2o1)C(=O)CN(C[C@@H]1CCNC1=O)C(=O)CCl [Example 15, N—((S)-1-(2-Chloro-N—(((S)-2-oxopyrrolidin-3-yl)methyl)acetamido)-5-methyl-2-oxohexan-3-yl)-4-fluorobenzofuran-2-carboxamide]	< 2000 nM
C#CC(=O)N(CC(=O)[C@H](CC(C)C)NC(=O)c1cc2c(OC)cccc2[nH]1)C[C@@H]1CCNC1=O [Example 6, 4-Methoxy-N—((S)-5-methyl-2-oxo-1-(N—(((S)-2-oxopyrrolidin-3-yl)methyl)propiolamido)hexan-3-yl)-1H-indole-2-carboxamide]	2000 to 20000 nM
C=CC(=O)N(CC(=O)[C@H](CC(C)C)NC(=O)OC(C)(C)C)C[C@@H]1CCNC1=O [Example 3, Tert-butyl ((S)-5-methyl-2-oxo-1-(N—(((S)-2-oxopyrrolidin-3-yl)methyl)acrylamido)hexan-3-yl)carbamate]	> 20000 nM
C=CC(=O)N(CC(=O)[C@H](CC(C)C)NC(=O)c1cc2c(OC)cccc2[nH]1)C[C@@H]1CCNC1=O [Example 4, 4-Methoxy-N—((S)-5-methyl-2-oxo-1-(N—(((S)-2-oxopyrrolidin-3-yl)methyl)acrylamido)hexan-3-yl)-1H-indole-2-carboxamide]	> 20000 nM
COc1cccc2[nH]c(C(=O)N[C@@H](CC(C)C)C(=O)CN(C[C@@H]3CCNC3=O)C(=O)CF)cc12 [Example 8, N—((S)-1-(2-Fluoro-N—(((S)-2-oxopyrrolidin-3-yl)methyl)acetamido)-5-methyl-2-oxohexan-3-yl)-4-methoxy-1H-indole-2-carboxamide]	> 20000 nM
CC(C)C[C@H](NC(=O)OCc1ccccc1)C(=O)CN(C[C@@H]1CCNC1=O)C(=O)CCl [Example 20, Benzyl ((S)-1-(2-chloro-N—(((S)-2-oxopyrrolidin-3-yl)methyl)acetamido)-5-methyl-2-oxohexan-3-yl)carbamate]	< 2000 nM
